# Patent publication US9540343B2 (Gilead Sciences, Inc., priority 2011, dated 2017)
# Columns and labels:
# HIV-IIIb = test: Test A: Antiviral assay in MT4 cells; type: cell-based, HIV-1; details: MT-4 cells infected with HIV-IIIb, 5 days, CellTiter-Glo; for inhibition at 2 µM: Human immunodeficiency virus 1, IIIB, MT4, 120 h, read-out: % inhibition at 2 μM, percent inhibition of virus-induced cell killing, from dose response curve at 2 uM drug
# in vitro = test: in vitro
# Summary of the method: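 Cytoprotection read-out: CellTiter-Glo chemiluminescence after 5 days at 37 °C of HIV-IIIb-infected MT-4 cells (m.o.i. 0.003) with compound in 10-point 3-fold dilutions, quadruplicate, 10% FBS. Cytotoxicity (CC50) measured identically without virus.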
# [1] = human, uninfected MT-4 cells, CC50 (nM), same protocol as Test A, CellTiter-Glo
SMILES,inhibition at 2 µM (HIV-IIIb),CC50 at 5 days (in vitro; [1]),"CC50 at 5 days (in vitro; human, CC50 (nM), uninfected MT-4 cells, same protocol as Test A, CellTiter-Glo)","% inhibition at 2 μM (HIV-IIIb; percent inhibition of virus-induced cell killing, from dose response curve at 2 uM drug)"
"O=C(Cn1nc(C(F)F)c2c1C(F)(F)C1CC21)N[C@@H](Cc1cc(F)cc(F)c1)c1ncccc1-c1cccc2cnccc12 (stereo partly drawn) [Example 410, (S)—N-(1-(3-(quinole-5-yl)-pyridin-2-yl)-2-(3,5-difluorophenyl)ethyl)-2-(3-(difluoromethyl)-5,6-dihydro-4,5-(methano)-6,6-difluoro-cyclopenta[c]pyrazol-1(4H)-yl)acetamide]",103%,13700 nM,–,–
"NC(=O)c1cc(-c2cccnc2[C@H](Cc2cccc(F)c2)NC(=O)Cn2nc(C(F)(F)F)cc2Br)ccc1F [Example 222B, (S)-5-(2-(1-(2-(5-bromo-3-(trifluoromethyl)-1H-pyrazol-1-yl)acetamido)-2-(3-fluorophenyl)ethyl)pyridin-3-yl)-2-fluorobenzamide]",21%,25600 nM,–,–
"NC(=O)c1cccc(-c2cccnc2[C@H](Cc2cc(F)cc(F)c2)NC(=O)Cc2c[nH]c3cc(C(F)(F)F)ccc23)c1 [Example 527E, (S)-3-(2-(2-(3,5-difluorophenyl)-1-(2-(6-(trifluoromethyl)-1H-indol-3-yl)acetamido)ethyl)pyridin-3-yl)benzamide]",66%,10600 nM,–,–
Cc1cc(-c2cccnc2[C@H](Cc2cc(F)cc(F)c2)NC(=O)Cc2c[nH]c3ccc(F)cc23)cnc1F [Example 419],42%,27100 nM,–,–
"Cc1cc2ccn(CC(=O)N[C@@H](Cc3cc(F)cc(F)c3)c3ncccc3-c3ccc(F)c(C(N)=O)c3)c2cc1C [Example 498F, (S)-5-(2-(2-(3,5-difluorophenyl)-1-(2-(5,6-dimethyl-1H-indol-1-yl)acetamido)ethyl)pyridin-3-yl)-2-fluorobenzamide]",60%,13200 nM,–,–
"NC(=O)c1cc(-c2cccnc2[C@H](Cc2cc(F)cc(F)c2)NC(=O)Cn2nc(C(F)(F)F)cc2C(F)(F)F)ccc1F [Example 542, (S)-5-(2-(1-(2-(3,5-bis(trifluoromethyl)-1H-pyrazol-1-yl)acetamido)-2-(3,5-difluorophenyl)ethyl)pyridin-3-yl)-2-fluorobenzamide]",1%,33600 nM,–,–
"O=C1Cc2cc(-c3cccnc3[C@H](Cc3cc(F)cc(F)c3)NC(=O)Cn3nc(C(F)F)c4c3C(F)(F)C3CC43)ccc2N1 (stereo partly drawn) [Example 400, (S)—N-(1-(3-(oxindole-5-yl)-pyridin-2-yl)-2-(3,5-difluorophenyl)ethyl)-2-(3-(difluoromethyl)-5,6-dihydro-4,5-(methano)-6,6-difluoro-cyclopenta[c]pyrazol-1(4H)-yl)acetamide]",45%,23300 nM,–,–
"CN(C)S(=O)(=O)c1ccc(-c2cccnc2[C@H](Cc2cc(F)cc(F)c2)NC(=O)Cn2nc(C(F)F)c3c2C(F)(F)C2CC32)cc1 (stereo partly drawn) [Example 119, (S)—N-(1-(3-(4-(N,N-dimethylsulfamoyl)phenyl)-pyridin-2-yl)-2-(3,5-difluorophenyl)ethyl)-2-(3-(difluoromethyl)-5,6-dihydro-4,5-(methano)-6,6-difluoro-cyclopenta[c]pyrazol-1(4H)-yl)acetamide]",48%,> 53200 nM,–,–
"NC(=O)c1cc(-c2cccnc2[C@H](Cc2cc(F)cc(F)c2)NC(=O)Cn2nc(C(F)(F)OCc3ccccn3)c3c2CCCC3)ccc1OCc1ccccn1 [Example 129, (S)-5-(2-(1-(2-(3-(difluoro(pyridin-2-ylmethoxy)methyl)-4,5,6,7-tetrahydro-1H-indazol-1-yl)acetamido)-2-(3,5-difluorophenyl)ethyl)pyridin-3-yl)-2-(pyridin-2-ylmethoxy)benzamide]",0%,10200 nM,–,–
"CCc1cccc2c(C(C)=O)cn(CC(=O)N[C@@H](Cc3cc(F)cc(F)c3)c3ncccc3-c3ccc(F)c(C(N)=O)c3)c12 [Example 509, (S)-5-(2-(1-(2-(3-acetyl-7-ethyl-1H-indol-1-yl)acetamido)-2-(3,5-difluorophenyl)ethyl)pyridin-3-yl)-2-fluorobenzamide]",48%,–,24600 nM,–
"CCC(C(=O)N[C@@H](Cc1cc(F)cc(F)c1)c1ncccc1-c1ccc(F)c(C(N)=O)c1)n1nc(C(F)F)cc1C(F)F (single isomer, unassigned) [Example 483D]",19%,26200 nM,–,–
"CNC(=O)c1nc2c(C)cccc2n1CC(=O)N[C@@H](Cc1cc(F)cc(F)c1)c1ncccc1-c1ccc(F)c(C(N)=O)c1 [Example 523, (S)-1-(2-(1-(3-(3-carbamoyl-4-fluorophenyl)pyridin-2-yl)-2-(3,5-difluorophenyl)ethylamino)-2-oxoethyl)-N,4-dimethyl-1H-benzo[d]imidazole-2-carboxamide]",24%,48800 nM,–,–
"NCc1ccc2[nH]cc(CC(=O)N[C@@H](Cc3cc(F)cc(F)c3)c3ncccc3-c3ccc(Cl)cc3)c2c1 [Example 491F, (S)-2-(5-(aminomethyl)-1H-indol-3-yl)-N-(1-(3-(4-chlorophenyl)pyridin-2-yl)-2-(3,5-difluorophenyl)ethyl)acetamide]",18%,7850 nM,–,–
"NC(=O)c1cc(-c2cccnc2[C@H](Cc2cc(F)cc(F)c2)NC(=O)C(CO)c2ccccc2)ccc1F (stereo partly drawn) [Example 578, 5-(2-((1S)-2-(3,5-difluorophenyl)-1-(3-hydroxy-2-phenylpropanamido)ethyl)pyridin-3-yl)-2-fluorobenzamide]",15%,> 53200 nM,–,–
"N#Cc1nn(CC(=O)N[C@@H](Cc2cc(F)cc(F)c2)c2ncccc2-c2ccc(F)c(C(N)=O)c2)c2c1C1CC1C2 (stereo partly drawn) [Example 242D, 5-(2-((1S)-1-(2-(3-cyano-3b,4,4a,5-tetrahydro-1H-cyclopropa[3,4]cyclopenta[1,2-c]pyrazol-1-yl)acetamido)-2-(3,5-difluorophenyl)ethyl)pyridin-3-yl)-2-fluorobenzamide]",97%,25500 nM,–,–
"NS(=O)(=O)c1cccc(-c2cncnc2[C@H](Cc2cc(F)cc(F)c2)NC(=O)Cc2c[nH]c3ccc(O)cc23)c1 [Example 295B, (S)—N-(2-(3,5-difluorophenyl)-1-(5-(3-sulfamoylphenyl)pyrimidin-4-yl)ethyl)-2-(5-hydroxy-1H-indol-3-yl)acetamide]",99%,> 53200 nM,–,–
"CCC(C(=O)N[C@@H](Cc1cc(F)cc(F)c1)c1ncccc1-c1ccc(F)c(C(N)=O)c1)n1nc(C(F)(F)F)c2c1CCCC2 (stereo partly drawn) [Example 504E, 5-(2-((1S)-2-(3,5-difluorophenyl)-1-(2-(3-(trifluoromethyl)-4,5,6,7-tetrahydro-1H-indazol-1-yl)butanamido)ethyl)pyridin-3-yl)-2-fluorobenzamide]",–,12800 nM,–,142%
"NC(=O)c1cc(-c2cccnc2[C@H](Cc2cc(F)cc(F)c2)NC(=O)Cn2nc(C(F)(F)F)c3c2CCNC3=O)ccc1F [Example 270C, (S)-5-(2-(2-(3,5-difluorophenyl)-1-(2-(4-oxo-3-(trifluoromethyl)-4,5,6,7-tetrahydro-1H-pyrazolo[4,3-c]pyridin-1-yl)acetamido)ethyl)pyridin-3-yl)-2-fluorobenzamide]",1%,> 53200 nM,–,–
"O=C(Cn1nc(C(F)(F)F)c2c1COCC2)N[C@@H](Cc1cc(F)cc(F)c1)c1ncccc1-c1ccc(Cl)cc1 [Example 121, (S)—N-(1-(3-(4-chlorophenyl)pyridin-2-yl)-2-(3,5-difluorophenyl)ethyl)-2-(3-(trifluoromethyl)-4,5-dihydropyrano[3,4-c]pyrazol-1(7H)-yl)acetamide]",68%,9100 nM,–,–
"NC(=O)c1cc(-c2cccnc2[C@H](Cc2cc(F)cc(F)c2)NC(=O)[C@H]2COCCN2)ccc1F [Example 188, (R)—N—((S)-1-(3-(3-carbamoyl-4-fluorophenyl)pyridin-2-yl)-2-(3,5-difluorophenyl)ethyl)morpholine-3-carboxamide]",0%,> 53000 nM,–,–
"Cc1cc(C)c2c(c1)NC(=O)C2CC(=O)N[C@@H](Cc1cccc(F)c1)c1ncccc1-c1ccc(F)c(C(N)=O)c1 (stereo partly drawn) [Example 59E, 5-(2-((1S)-1-(2-(4,6-dimethyl-2-oxoindolin-3-yl)acetamido)-2-(3-fluorophenyl)ethyl)pyridin-3-yl)-2-fluorobenzamide]",75%,45100 nM,–,–
"NC(=O)c1cc(-c2cccnc2[C@H](Cc2cc(F)cc(F)c2)NC(=O)Cn2nc(C(F)(F)F)c3c2CCS(=O)(=O)C3)ccc1F [Example 263, (S)-5-(2-(2-(3,5-difluorophenyl)-1-(2-(5,5-dioxido-3-(trifluoromethyl)-6,7-dihydrothiopyrano[4,3-c]pyrazol-1(4H)-yl)acetamido)ethyl)pyridin-3-yl)-2-fluorobenzamide]",17%,> 53200 nM,–,–
"COc1ccc(-c2cccnc2[C@H](Cc2cccc(F)c2)NC(=O)Cc2c[nH]c3ccc(O)cc23)cc1 [Example 28, (S)—N-(2-(3-fluorophenyl)-1-(3-(4-methoxyphenyl)pyridin-2-yl)ethyl)-2-(5-hydroxy-1H-indol-3-yl)acetamide]",93%,26000 nM,–,–
"NC(=O)c1cc(-c2cccnc2[C@H](Cc2cccc(F)c2)NC(=O)Cn2c(=O)[nH]c3ccccc32)ccc1F [Example 326, (S)-2-fluoro-5-(2-(2-(3-fluorophenyl)-1-(2-(2-oxo-2,3-dihydro-1H-benzo[d]imidazol-1-yl)acetamido)ethyl)pyridin-3-yl)benzamide]",27%,> 53200 nM,–,–
